Reference: US20240415808A1, “Dosage Regimen for Fexuprazan Injection Composition” (Daewoong Pharmaceutical Co., Ltd., priority 2021, published 2024)
Several values for one entry are separate records, joined by “and”; a condition that tells them apart may be missing. Identical values can stand only once.

How the values were obtained:
[1] = single intravenous dose-escalation clinical trial, pharmacokinetics; format: in vivo; details: human, blood, healthy adults
Protocol: In order to confirm the safety/PK/PD of the compound of the present invention during intravenous administration, the clinical trial was designed with random assignment, double-blind, placebo-controlled, single dose, and stepwise dose-escalation in healthy adults (Korean/Chinese) between the ages of 19 and 50.
A stabilizer (200 mg), a freeze-drying auxiliary agent (200 mg), and the previously prepared fexuprazan hydrochloride (40 mg based on fexuprazan weight) were dissolved in water for injection (4 mL), and an appropriate amount of acid was added thereto to adjust the pH to 4.0. The prepared solution was put into a vial, dried by a freeze-drying method, and prepared as a freeze-drying agent.
The freeze-dried composition prepared as above was used, but a total of 28 subjects of 4, 8, 8, and 8 subjects each were enrolled for four dose groups (10 mg, 20 mg, 40 mg, and 80 mg) based on fexuprazan weight, and each group was randomly assigned to test or control groups in the order that they passed the screening criteria at a ratio of 3:1. All test subjects completed safety, pharmacokinetic, and pharmacodynamic evaluations according to the planned clinical trial schedule.
The medication was performed in the morning, and the patient was discharged from the hospital on the third day of medication. Subsequently, a close-out visit was performed between the 8th and 11th day of medication.
Testing of the acidity (pH) in the gastrointestinal tract and gastric secretion promoting hormone gastrin were performed from 24 hours before medication to 24 hours after medication. Blood collection for pharmacokinetics and urine collection for pharmacokinetics were performed for 48 hours from the time of medication.
After a single intravenous administration of four dose groups for fexuprazan, the dose proportionality of fexuprazan to the Cmax, AUClast, and AUCinf parameters was evaluated between doses of 10 mg and 80 mg. The log-transformed parameters and 95% confidence interval regression lines of each dose after a single administration are shown in Table 7 and FIG. 3, respectively. […] That is, it can be confirmed that the pK parameter of intravenous administration is proportional to the dose.
Table 8 and FIG. 4 show the results of the Kruskal Wallis test for dose-normalized Cmax (Cmax/Dose), AUClast (AUClast/Dose), and AUCinf (AUCinf/Dose) between dose groups. […] That is, it can be seen that there is no significant difference between dose groups in the proportional relationship, and the appropriate dose for intravenous administration can be calculated indirectly through the appropriate dose for oral administration.

[2] = test system: acidity (pH) in the gastrointestinal tract; test: multiple intravenous administration clinical trial (7 days), acidity (pH) in the gastrointestinal tract; format: in vivo, human; details: healthy adults; for Fraction time pH ≥ 4 over 24 hours post-dose (duration %) / Mean pH / Median pH: 7th day
Protocol: Subsequent to Experimental Example 4, in order to confirm the change in PD value during multiple administration of the compound of the present invention, the clinical trial was designed to be randomized, double-blind, placebo-controlled in healthy adults between the ages of 19 and 50.
A stabilizer (200 mg), a freeze-drying auxiliary agent (200 mg), and the previously prepared fexuprazan hydrochloride (40 mg based on fexuprazan weight) were dissolved in water for injection (4 mL), and the pH was adjusted to 4.0 by adding an appropriate amount of acid. The prepared solution was put into a vial and dried using a freeze-drying method to prepare a freeze-dried agent.
The freeze-dried composition prepared as above was used, but a total of 28 subject of […], 8, and 8 subjects each were enrolled for three dose groups (20 mg, 40 mg, and 80 mg) based on fexuprazan weight, and each group was randomly assigned to test or control groups in the order that they passed the screening criteria at a ratio of 3:1.
Dose groups 1 and 3 in Table 12 were administered once a day (every 24 hours) (FIG. 8), and dose group 2 was administered twice a day (every 12 hours) for 7 days (FIG. 9).
The acidity (pH) tests in the gastrointestinal tract were performed for 48 hours from the day before administration to 24 hours after the first administration. On the 7th day, it was administered for 24 hours after administration. The measured results are shown in Table 13 and FIGS. 10 to 14 below.

CNCc1cn(S(=O)(=O)c2cccc(F)c2)c(-c2ccc(F)cc2F)c1OC [Fexuprazan, 1-(5-(2,4-difluorophenyl)-1-((3-fluorophenyl)sulfonyl)-4-methoxy-1H-pyrrol-3-yl)-N-methylmethanamine]
AUC(0-inf) ([1]; single intravenous 10 mg): 240 ± 31.3 ng·h/mL | AUC(0-t) ([1]; single intravenous 10 mg): 235 ± 32.3 ng·h/mL | clearance ([1]; single intravenous 10 mg): 702 mL/min | half-life ([1]; single intravenous 10 mg): 9.04 ± 0.85 h | Cmax ([1]; single intravenous 10 mg (N = 3)): 93.7 ± 13.9 ng/mL | AUC(0-inf) ([1]; single intravenous 20 mg): 514 ± 113 ng·h/mL | AUC(0-t) ([1]; single intravenous 20 mg): 502 ± 111 ng·h/mL | clearance ([1]; single intravenous 20 mg): 677 mL/min | half-life ([1]; single intravenous 20 mg): 8.61 ± 1.89 h | Cmax ([1]; single intravenous 20 mg (N = 6)): 185 ± 32.3 ng/mL | AUC(0-inf) ([1]; single intravenous 40 mg): 1100 ± 238 ng·h/mL | AUC(0-t) ([1]; single intravenous 40 mg): 1070 ± 225 ng·h/mL | clearance ([1]; single intravenous 40 mg): 630 mL/min | half-life ([1]; single intravenous 40 mg): 8.84 ± 0.96 h | Cmax ([1]; single intravenous 40 mg (N = 6)): 321 ± 75.7 ng/mL | AUC(0-inf) ([1]; single intravenous 80 mg): 2380 ± 301 ng·h/mL | AUC(0-t) ([1]; single intravenous 80 mg): 2290 ± 271 ng·h/mL | clearance ([1]; single intravenous 80 mg): 567 mL/min | half-life ([1]; single intravenous 80 mg): 10.2 ± 1.84 h | Cmax ([1]; single intravenous 80 mg (N = 6)): 633 ± 165 ng/mL | Fraction time pH ≥ 4 over 24 hours post-dose (duration %) ([2]; 20 mg IV q24h): 55.68 (±14.85) % and 55.68 ± 14.85% | Mean pH ([2]; 20 mg IV q24h): 4.28 ± 0.7 | Median pH ([2]; 20 mg IV q24h): 4.29 ± 1.32 | Fraction time pH ≥ 6 over 24 hours post-dose (duration %) ([2]; 20 mg IV q24h, 7th day (n = 6)): 25.29 ± 15.41% | Fraction time pH ≥ 4 over 24 hours post-dose (duration %) ([2]; 40 mg IV q12h): 99.85 ± 0.31% | Mean pH ([2]; 40 mg IV q12h): 6.34 ± 0.23 | Median pH ([2]; 40 mg IV q12h): 6.33 ± 0.22 | Fraction time pH ≥ 6 over 24 hours post-dose (duration %) ([2]; 40 mg IV q12h, 7th day (n = 5)): 74.77 (±13.39) % and 74.77 ± 13.39% | Fraction time pH ≥ 4 over 24 hours post-dose (duration %) ([2]; 80 mg IV q24h): 94.78 ± 8.49% | Mean pH ([2]; 80 mg IV q24h): 6.08 ± 0.5 | Median pH ([2]; 80 mg IV q24h): 6.28 ± 0.27 | Fraction time pH ≥ 6 over 24 hours post-dose (duration %) ([2]; 80 mg IV q24h, 7th day (n = 6)): 70.07% and 70.07 ± 18.09%
